Measurements as given in patent US12110496B2, “Method of determining the zygosity of event MON 88302” (priority 2010, dated 2024).

Key:
[1] = test system: Brassica napus events from construct 2; assay: First year efficacy field trials, construct 2 events; format: in vivo
Procedure: The 25 events were also evaluated in first year field testing for efficacy located at the same testing site as the agronomy field trials. Efficacy field trials were initiated to evaluate the vegetative and reproductive tolerance of the events to sequential applications of glyphosate at various application timings and rates. The 16 R2 events from construct 1 were evaluated at 5 locations. The 3 R2 events from construct 2, the 3 R2 events from construct 4, and the 3 R2 events from construct 5 were evaluated at 4 locations. Each study contained the positive isoline of each event and two commercial varieties. […]
Events were evaluated for vegetative and reproductive tolerance to either a single application of 1.6 lb AE/A or two sequential applications of 0.8 lb AE/A when applied from crop emergence up to first flower. […]
(§1) Data Collection was performed as above. Glyphosate injury was assessed as follows. […] Vegetative injury was rated after the first glyphosate application while reproductive percent chlorosis/necrosis was evaluated after the second application using a scale ranging from 0% (no injury) to 100% (plant death). Growth reduction was evaluated at 14 to 21 days after each application using a scale ranging from 0 to 100%. Vegetative growth reduction was evaluated after the first application while reproductive growth reduction was determined after the sequential application. […]

[2] = test system: Brassica napus events from construct 1; assay: First year efficacy field trials, construct 1 events; format: in vivo
Procedure: The 25 events were also evaluated in first year field testing for efficacy located at the same testing site as the agronomy field trials. Efficacy field trials were initiated to evaluate the vegetative and reproductive tolerance of the events to sequential applications of glyphosate at various application timings and rates. The 16 R2 events from construct 1 were evaluated at 5 locations. The 3 R2 events from construct 2, the 3 R2 events from construct 4, and the 3 R2 events from construct 5 were evaluated at 4 locations. Each study contained the positive isoline of each event and two commercial varieties. A split plot design with 3 replications was used with herbicide treatments as whole plots and event entries as subplots. A non-sprayed treatment was included for comparison.
Events were evaluated for vegetative and reproductive tolerance to either a single application of 1.6 lb AE/A or two sequential applications of 0.8 lb AE/A when applied from crop emergence up to first flower. Roundup WeatherMAX® was applied at three different rates that were equivalent to 2×, 4×, and 8× of the single application rate (Table 2). The initial application was made at the four leaf stage followed by a second application at the prebolt stage. […]
as §1, with “application. Least-squares means were calculated for each combination of glyphosate level and event, and t-tests were used to determine the significance of the effects of glyphosate on event tolerance.” for “application.”

[3] = test system: canola comprising event MON 88302 (Ebony germplasm); assay: Field trial of glyphosate tolerance, MON 88302 event (crop injury, maturity, seed moisture, yield); format: in vivo, Brassica napus; conditions: for 7-10 DAT % CHLR Avg / 14-21 DAT % GR Avg: MON88302
From the text: (§2) The current registered glyphosate rate for the Genuity™ Roundup Ready® Canola system (event RT73) is a single application of 675 g ae/ha or two 450 g ae/ha applications up to the six leaf stage of the canola crop. RT73 was compared with the MON 88302 event at multiple single application rates of glyphosate. Applications were made from post emergence to the first flower of the canola crop. The Genuity™ Roundup Ready® Canola system (RT73 event) was represented by the commercial open pollinated variety 34-65, and event MON88302 was transformed into the Ebony germplasm.
(§3) Eight trials were established with six taken to harvest (one site was lost to drought and one site was lost to hail, and data from one harvested site was not used due to the coefficient of variation (CV) exceeding the predetermined cut-off value). Standard canola growing practices were utilized throughout the season to optimize plant growth. Pre-emergent and post-emergent conventional herbicides and seed treatment containing fungicide and insecticide were used to minimize pest pressure. Trials were set up as a split block design with Genuity™ Roundup Ready® Canola (RT73 event) or MON 88302 systems blocked and herbicide rates randomized within the block. Plots were two by six meters and replicated three times. Plots were sprayed with handheld boom sprayers at 100-110 l/ha application rate at the appropriate crop stage. The Canadian formulation of Roundup WeatherMAX® (540 g/L) was used as the glyphosate product. The four to six leaf stage was defined as four to six true leaves on the main stem, and first flower was when 50% of the plants had at least one flower. Percent chlorosis (% CHLR) was recorded seven to ten days after herbicide application (DAT or days after treatment). Percent chlorosis is a visual estimate of the amount of yellowing on the leaves of plants as a result of herbicide treatment compared to the untreated check on a 1 to 100 scale. Percent growth reduction (% GR) was recorded 14-21 days after herbicide application (DAT). Percent growth reduction is a visual evaluation used to describe plant growth reduction consisting of, but not limited to, reduced height and/or quantity of foliage for the treated area. The evaluation pertains only to the above ground portion of the plant. Percent growth reduction is compared to the non-treated check and is rated on a 1 to 100 scale. Maturity was recorded as days after planting to when 30% of the seeds on the main raceme are brown/black in color. Percent seed moisture was recorded electronically during harvesting. All plots were swathed and then allowed to dry until seed moisture was low enough to facilitate harvesting. Weight and seed moisture was recorded electronically during harvesting and converted to bushels/acre at 10% seed moisture. Each location was analyzed individually and averages across locations were analyzed using statistical software. Data were screened for outliers using the standard two-pass procedure based on deleted studentized residuals using a False Discovery Rate (FDR) adjustment for an experiment-wise Type I error rate of 5% at each location. Outliers were removed prior to analysis. The standard analysis of variance for a split-plot design was performed by mixed model with restricted maximum likelihood estimation-variety and herbicide treatments were treated as fixed effects, replications and locations were random effects. Least-squares means were calculated for each variety and each treatment, and t-tests with comparison-wise error rates of 5% were used to determine the significance between variety and control at each herbicide treatment level on canola growth characteristics. Crop injury, maturity, and yield were measured to assess benefits.

[4] = test system: canola comprising event RT73 (Genuity Roundup Ready Canola, variety 34-65); assay: Field trial of glyphosate tolerance, RT73 event (crop injury, maturity, seed moisture, yield); format: in vivo, Brassica napus
From the text: as §2, §3

[5] = glyphosate 450 g ae/ha at 1st flower
[6] = glyphosate 450 g ae/ha at 4-6 leaf
[7] = glyphosate 900 g ae/ha at 1st flower
[8] = glyphosate 900 g ae/ha at 4-6 leaf
[9] = glyphosate 1800 g ae/ha at 1st flower
[10] = glyphosate 3600 g ae/ha at 1st flower
[11] = glyphosate 3600 g ae/ha at 4-6 leaf
[12] = glyphosate 11800 g ae/ha at 4-6 leaf
[13] = glyphosate 1800 g ae/ha at 4-6 leaf

O=C(O)CNCP(=O)(O)O [glyphosate, N-phosphonomethyl-glycine]
yield ([1]; all construct 2 events, regardless of application rate): significantly reduced the yield
injury ([1]; construct 2 events, all glyphosate rates tested): Unacceptable levels of injury
vegetative injury ([2]; 2× product concept rate): very minor
yield ([2]; regardless of rate, one event excepted at 6.4 lb AE/A followed by 6.4 lb AE/A): not negatively impacted
vegetative and reproductive tolerance to glyphosate ([2]; sequential applications at four leaf and prebolt, 2×, 4×, 8× rates): excellent vegetative and reproductive tolerance
7-10 DAT % CHLR Avg [3, 5]: 0.0%
14-21 DAT % GR Avg [3, 5]: 0.0%
7-10 DAT % CHLR Avg [3, 6]: 0.0%
14-21 DAT % GR Avg [3, 6]: 0.3%
7-10 DAT % CHLR Avg [3, 7]: 0.3%
14-21 DAT % GR Avg [3, 7]: 0.8%
7-10 DAT % CHLR Avg [3, 8]: 0.7%
14-21 DAT % GR Avg [3, 8]: 0.7%
7-10 DAT % CHLR Avg [3, 9]: 0.9%
14-21 DAT % GR Avg [3, 9]: 0.0%
7-10 DAT % CHLR Avg [3, 10]: 4.7%
14-21 DAT % GR Avg [3, 10]: 1.1%
7-10 DAT % CHLR Avg [3, 11]: 1.7%
14-21 DAT % GR Avg [3, 11]: 0.3%
7-10 DAT % CHLR Avg [3, 12]: 1.7%
14-21 DAT % GR Avg [3, 12]: no percent growth reduction
14-21 DAT % GR Avg ([3]; glyphosate 11800 g ae/ha at 4-6 leaf, listed as Glyphosate): 0.0%
yield reduction ([3]; MON 88302 plants, 1800 g ae/ha and 2× at four to six leaf (FIG. 2)): No significant yield reductions
maturity ([3]; MON 88302 plants, 1800 g ae/ha at four to six leaf): significant shortening of maturity
maturity ([3]; MON 88302 plants, all rates except 1800 g ae/ha at four to six leaf): No delay in maturity
yield vs unsprayed ([3]; MON 88302 plants, any rate or timing): No significant differences in yield
yield reduction ([3]; MON 88302 plants, glyphosate rates at first flower (FIG. 3)): No significant yield reductions
yield reduction ([4]; 2× the proposed rate of 1800 g ae/ha at four to six leaf): 30%
yield vs unsprayed ([4]; 1800 and 3600 g ae/ha at both stages and 900 g/ha at first flower): significant yield reduction
yield reduction ([4]; 1800 g ae/ha at four to six leaf): 11.4%
maturity ([4]; 3600 g ae/ha at both four to six leaf and first flower): delayed significantly
yield reduction ([4]; all rates shown at first flower (FIG. 3)): significant yield reduction
7-10 DAT % CHLR Avg [4, 5]: 0.6%
14-21 DAT % GR Avg [4, 5]: 0.8%
7-10 DAT % CHLR Avg [4, 6]: 0.3%
14-21 DAT % GR Avg [4, 6]: 0.9%
7-10 DAT % CHLR Avg [4, 7]: 1.8%
14-21 DAT % GR Avg [4, 7]: 0.3%
7-10 DAT % CHLR Avg [4, 8]: 2.2%
14-21 DAT % GR Avg [4, 8]: 1.3%
7-10 DAT % CHLR Avg [4, 9]: 6.7%
14-21 DAT % GR Avg [4, 9]: 3.3%
7-10 DAT % CHLR Avg [4, 13]: 4.7%
14-21 DAT % GR Avg [4, 13]: 5.3%
7-10 DAT % CHLR Avg [4, 10]: 10%
14-21 DAT % GR Avg [4, 10]: 8.1%
7-10 DAT % CHLR Avg ([4]; glyphosate 3600 g ae/ha at 1st flower, listed as Glyphosate): 10.0%
7-10 DAT % CHLR Avg [4, 11]: 10%
14-21 DAT % GR Avg [4, 11]: 20.8%
7-10 DAT % CHLR Avg ([4]; glyphosate 3600 g ae/ha at 4-6 leaf, listed as Glyphosate): 10.0%
